ChEMBL document CHEMBL1201862, “PubChem BioAssay data set” (2004)
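Five concentrations, 48 hours, 96-well plates. GI50: concentration for 50% inhibition of growth.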 Calls of active or inactive are those of the source. Cut-off read from the data, not from the text of the source: active = GI50 up to about 1.1 µM and inactive = higher.

Key:
Test in all cases: NCI tumour cell line growth inhibition, 48 h
RXF 393 = test system: RXF 393
UO-31 = test system: UO-31
SNB-78 = test system: SNB-78
A498 = test system: A498
SF-268 = test system: SF-268
SK-MEL-28 = test system: SK-MEL-28
EKVX = test system: EKVX
MOLT-4 = test system: MOLT-4
OVCAR-4 = test system: OVCAR-4
LOX IMVI = test system: LOX IMVI
Malme-3M = test system: Malme-3M
NCI-H460 = test system: NCI-H460
ACHN = test system: ACHN
786-0 = test system: 786-0
HOP-18 = test system: HOP-18
TK-10 = test system: TK-10
A549 = test system: A549
NCI-H226 = test system: NCI-H226
HL-60 = test system: HL-60
M19-MEL = test system: M19-MEL
OVCAR-8 = test system: OVCAR-8
HT-29 = test system: HT-29
DLD-1 = test system: DLD-1
LXFL 529 = test system: LXFL 529
UACC-257 = test system: UACC-257
DMS-114 = test system: DMS-114
SN12C = test system: SN12C
K562 = test system: K562
RPMI-8226 = test system: RPMI-8226
OVCAR-3 = test system: OVCAR-3
KM12 = test system: KM12
UACC-62 = test system: UACC-62
SNB-19 = test system: SNB-19
OVCAR-5 = test system: OVCAR-5
SK-OV-3 = test system: SK-OV-3
KM-20L2 = test system: KM-20L2
SF-295 = test system: SF-295
SW-620 = test system: SW-620
XF498 = test system: XF498
IGROV-1 = test system: IGROV-1
NCI-H23 = test system: NCI-H23
SR = test system: SR
RXF 631 = test system: RXF 631
M14 = test system: M14
SF-539 = test system: SF-539
CCRF-CEM = test system: CCRF-CEM
HOP-62 = test system: HOP-62
U-251 = test system: U-251
SNB-75 = test system: SNB-75
HCT-116 = test system: HCT-116
NCI-H522 = test system: NCI-H522
HCT-15 = test system: HCT-15
DMS-273 = test system: DMS-273
HCC 2998 = test system: HCC 2998
HOP-92 = test system: HOP-92
SK-MEL-5 = test system: SK-MEL-5
CAKI-1 = test system: CAKI-1

For `Oc1ccccc1/C=N/Cc1ccco1`, the GI50 (RXF 393) was > 100 µM (inactive), the GI50 (UO-31) was > 100 µM (inactive) and the GI50 (SNB-78) was > 100 µM (inactive). The GI50 (A498) was > 100 µM (inactive), the GI50 (SF-268) was > 100 µM (inactive) and the GI50 (SK-MEL-28) was > 100 µM (inactive). The GI50 (EKVX) was > 100 µM (inactive), the GI50 (MOLT-4) was > 100 µM (inactive) and the GI50 (OVCAR-4) was > 100 µM (inactive). The GI50 (LOX IMVI) was > 100 µM (inactive), the GI50 (Malme-3M) was > 100 µM (inactive) and the GI50 (NCI-H460) was > 100 µM (inactive). For the same compound, the GI50 (ACHN) was > 100 µM (inactive), the GI50 (786-0) was > 100 µM (inactive) and the GI50 (HOP-18) was > 100 µM (inactive). For the same compound, the GI50 (TK-10) was > 100 µM (inactive), the GI50 (A549) was > 100 µM (inactive) and the GI50 (NCI-H226) was > 100 µM (inactive). For the same compound, the GI50 (HL-60) was > 100 µM (inactive), the GI50 (M19-MEL) was > 100 µM (inactive) and the GI50 (OVCAR-8) was > 100 µM (inactive). The GI50 (HT-29) was > 100 µM (inactive), the GI50 (DLD-1) was > 100 µM (inactive) and the GI50 (LXFL 529) was > 100 µM (inactive). The GI50 (UACC-257) was > 100 µM (inactive), the GI50 (DMS-114) was > 100 µM (inactive) and the GI50 (SN12C) was > 100 µM (inactive). For the same compound, the GI50 (K562) was > 100 µM (inactive), the GI50 (RPMI-8226) was > 100 µM (inactive) and the GI50 (OVCAR-3) was > 100 µM (inactive). For the same compound, the GI50 (KM12) was > 100 µM (inactive), the GI50 (UACC-62) was > 100 µM (inactive) and the GI50 (SNB-19) was > 100 µM (inactive). The GI50 (OVCAR-5) was > 100 µM (inactive), the GI50 (SK-OV-3) was > 100 µM (inactive) and the GI50 (KM-20L2) was > 100 µM (inactive). For the same compound, the GI50 (SF-295) was > 100 µM (inactive), the GI50 (SW-620) was > 100 µM (inactive) and the GI50 (XF498) was > 100 µM (inactive). The GI50 (IGROV-1) was > 100 µM (inactive), the GI50 (NCI-H23) was > 100 µM (inactive) and the GI50 (SR) was > 100 µM (inactive). For the same compound, the GI50 (RXF 631) was > 100 µM (inactive), the GI50 (M14) was > 100 µM (inactive) and the GI50 (SF-539) was > 100 µM (inactive). The GI50 (CCRF-CEM) was > 100 µM (inactive), the GI50 (HOP-62) was > 100 µM (inactive) and the GI50 (U-251) was > 100 µM (inactive). For the same compound, the GI50 (SNB-75) was > 100 µM (inactive) and the GI50 (HCT-116) was > 100 µM (inactive).
With `Cc1ccccc1C(=O)N1CCN(C(=O)c2ccccc2C)CC1` the GI50 (RXF 393) was > 100 µM (inactive), the GI50 (UO-31) was > 100 µM (inactive) and the GI50 (SNB-78) was > 100 µM (inactive). For the same compound, the GI50 (A498) was > 100 µM (inactive), the GI50 (SF-268) was > 100 µM (inactive) and the GI50 (NCI-H522) was > 100 µM (inactive). The GI50 (SK-MEL-28) was > 100 µM (inactive), the GI50 (EKVX) was > 100 µM (inactive) and the GI50 (MOLT-4) was > 100 µM (inactive). For the same compound, the GI50 (OVCAR-4) was > 100 µM (inactive), the GI50 (LOX IMVI) was > 100 µM (inactive) and the GI50 (HCT-15) was > 100 µM. The GI50 (NCI-H460) was > 100 µM (inactive), the GI50 (DMS-273) was > 100 µM (inactive) and the GI50 (ACHN) was > 100 µM (inactive). For the same compound, the GI50 (786-0) was > 100 µM (inactive), the GI50 (HOP-18) was > 100 µM (inactive) and the GI50 (TK-10) was > 100 µM (inactive). For the same compound, the GI50 (A549) was > 100 µM (inactive), the GI50 (HL-60) was > 100 µM (inactive) and the GI50 (M19-MEL) was > 100 µM (inactive). For the same compound, the GI50 (OVCAR-8) was > 100 µM (inactive), the GI50 (HT-29) was > 100 µM (inactive) and the GI50 (DLD-1) was > 100 µM (inactive). For the same compound, the GI50 (LXFL 529) was > 100 µM (inactive), the GI50 (UACC-257) was > 100 µM (inactive) and the GI50 (SN12C) was > 100 µM (inactive). The GI50 (K562) was > 100 µM (inactive), the GI50 (RPMI-8226) was > 100 µM (inactive) and the GI50 (OVCAR-3) was > 100 µM (inactive). For the same compound, the GI50 (KM12) was > 100 µM (inactive), the GI50 (UACC-62) was > 100 µM (inactive) and the GI50 (SNB-19) was > 100 µM (inactive). For the same compound, the GI50 (OVCAR-5) was > 100 µM (inactive), the GI50 (HCC 2998) was > 100 µM (inactive) and the GI50 (SK-OV-3) was > 100 µM (inactive). For the same compound, the GI50 (KM-20L2) was > 100 µM (inactive), the GI50 (SF-295) was > 100 µM (inactive) and the GI50 (SW-620) was > 100 µM (inactive). The GI50 (HOP-92) was > 100 µM (inactive), the GI50 (XF498) was > 100 µM (inactive) and the GI50 (IGROV-1) was > 100 µM (inactive). The GI50 (NCI-H23) was > 100 µM (inactive), the GI50 (SK-MEL-5) was > 100 µM (inactive) and the GI50 (CAKI-1) was > 100 µM (inactive). For the same compound, the GI50 (SR) was > 100 µM (inactive), the GI50 (RXF 631) was > 100 µM (inactive) and the GI50 (M14) was > 100 µM (inactive). For the same compound, the GI50 (SF-539) was > 100 µM (inactive), the GI50 (CCRF-CEM) was > 100 µM (inactive) and the GI50 (HOP-62) was > 100 µM (inactive). For the same compound, the GI50 (U-251) was > 100 µM (inactive), the GI50 (SNB-75) was > 100 µM (inactive) and the GI50 (HCT-116) was > 100 µM (inactive).
